According to ChEMBL document CHEMBL5331073, “Discovery of novel 7,7-dimethyl-6,7-dihydro-5H-pyrrolo[3,4-d]pyrimidines as ATR inhibitors based on structure-based drug design” (Eur J Med Chem, 2023):

Legend:
[1] = test system: MCF7; test: Antiproliferative activity against human MCF7 cells assessed as reduction in cell viability incubated for 3 days by MTT assay; format: functional, cell-based; settings: MCF7, 72 h
[2] = test system: MDA-MB-231; test: Antiproliferative activity against human MDA-MB-231 cells assessed as reduction in cell viability incubated for 3 days by MTT assay; format: functional, cell-based; settings: MDA-MB-231, 72 h
[3] = target: T1, Serine/threonine-protein kinase ATR (Homo sapiens, UniProt Q13535); test: Inhibition of ATR (unknown origin) using peptide as substrate at 0.1 uM preincubated for 10 mins followed by substrate addition by microplate reader analysis
Target sequence in this assay (Q13535 whole entry, looked up): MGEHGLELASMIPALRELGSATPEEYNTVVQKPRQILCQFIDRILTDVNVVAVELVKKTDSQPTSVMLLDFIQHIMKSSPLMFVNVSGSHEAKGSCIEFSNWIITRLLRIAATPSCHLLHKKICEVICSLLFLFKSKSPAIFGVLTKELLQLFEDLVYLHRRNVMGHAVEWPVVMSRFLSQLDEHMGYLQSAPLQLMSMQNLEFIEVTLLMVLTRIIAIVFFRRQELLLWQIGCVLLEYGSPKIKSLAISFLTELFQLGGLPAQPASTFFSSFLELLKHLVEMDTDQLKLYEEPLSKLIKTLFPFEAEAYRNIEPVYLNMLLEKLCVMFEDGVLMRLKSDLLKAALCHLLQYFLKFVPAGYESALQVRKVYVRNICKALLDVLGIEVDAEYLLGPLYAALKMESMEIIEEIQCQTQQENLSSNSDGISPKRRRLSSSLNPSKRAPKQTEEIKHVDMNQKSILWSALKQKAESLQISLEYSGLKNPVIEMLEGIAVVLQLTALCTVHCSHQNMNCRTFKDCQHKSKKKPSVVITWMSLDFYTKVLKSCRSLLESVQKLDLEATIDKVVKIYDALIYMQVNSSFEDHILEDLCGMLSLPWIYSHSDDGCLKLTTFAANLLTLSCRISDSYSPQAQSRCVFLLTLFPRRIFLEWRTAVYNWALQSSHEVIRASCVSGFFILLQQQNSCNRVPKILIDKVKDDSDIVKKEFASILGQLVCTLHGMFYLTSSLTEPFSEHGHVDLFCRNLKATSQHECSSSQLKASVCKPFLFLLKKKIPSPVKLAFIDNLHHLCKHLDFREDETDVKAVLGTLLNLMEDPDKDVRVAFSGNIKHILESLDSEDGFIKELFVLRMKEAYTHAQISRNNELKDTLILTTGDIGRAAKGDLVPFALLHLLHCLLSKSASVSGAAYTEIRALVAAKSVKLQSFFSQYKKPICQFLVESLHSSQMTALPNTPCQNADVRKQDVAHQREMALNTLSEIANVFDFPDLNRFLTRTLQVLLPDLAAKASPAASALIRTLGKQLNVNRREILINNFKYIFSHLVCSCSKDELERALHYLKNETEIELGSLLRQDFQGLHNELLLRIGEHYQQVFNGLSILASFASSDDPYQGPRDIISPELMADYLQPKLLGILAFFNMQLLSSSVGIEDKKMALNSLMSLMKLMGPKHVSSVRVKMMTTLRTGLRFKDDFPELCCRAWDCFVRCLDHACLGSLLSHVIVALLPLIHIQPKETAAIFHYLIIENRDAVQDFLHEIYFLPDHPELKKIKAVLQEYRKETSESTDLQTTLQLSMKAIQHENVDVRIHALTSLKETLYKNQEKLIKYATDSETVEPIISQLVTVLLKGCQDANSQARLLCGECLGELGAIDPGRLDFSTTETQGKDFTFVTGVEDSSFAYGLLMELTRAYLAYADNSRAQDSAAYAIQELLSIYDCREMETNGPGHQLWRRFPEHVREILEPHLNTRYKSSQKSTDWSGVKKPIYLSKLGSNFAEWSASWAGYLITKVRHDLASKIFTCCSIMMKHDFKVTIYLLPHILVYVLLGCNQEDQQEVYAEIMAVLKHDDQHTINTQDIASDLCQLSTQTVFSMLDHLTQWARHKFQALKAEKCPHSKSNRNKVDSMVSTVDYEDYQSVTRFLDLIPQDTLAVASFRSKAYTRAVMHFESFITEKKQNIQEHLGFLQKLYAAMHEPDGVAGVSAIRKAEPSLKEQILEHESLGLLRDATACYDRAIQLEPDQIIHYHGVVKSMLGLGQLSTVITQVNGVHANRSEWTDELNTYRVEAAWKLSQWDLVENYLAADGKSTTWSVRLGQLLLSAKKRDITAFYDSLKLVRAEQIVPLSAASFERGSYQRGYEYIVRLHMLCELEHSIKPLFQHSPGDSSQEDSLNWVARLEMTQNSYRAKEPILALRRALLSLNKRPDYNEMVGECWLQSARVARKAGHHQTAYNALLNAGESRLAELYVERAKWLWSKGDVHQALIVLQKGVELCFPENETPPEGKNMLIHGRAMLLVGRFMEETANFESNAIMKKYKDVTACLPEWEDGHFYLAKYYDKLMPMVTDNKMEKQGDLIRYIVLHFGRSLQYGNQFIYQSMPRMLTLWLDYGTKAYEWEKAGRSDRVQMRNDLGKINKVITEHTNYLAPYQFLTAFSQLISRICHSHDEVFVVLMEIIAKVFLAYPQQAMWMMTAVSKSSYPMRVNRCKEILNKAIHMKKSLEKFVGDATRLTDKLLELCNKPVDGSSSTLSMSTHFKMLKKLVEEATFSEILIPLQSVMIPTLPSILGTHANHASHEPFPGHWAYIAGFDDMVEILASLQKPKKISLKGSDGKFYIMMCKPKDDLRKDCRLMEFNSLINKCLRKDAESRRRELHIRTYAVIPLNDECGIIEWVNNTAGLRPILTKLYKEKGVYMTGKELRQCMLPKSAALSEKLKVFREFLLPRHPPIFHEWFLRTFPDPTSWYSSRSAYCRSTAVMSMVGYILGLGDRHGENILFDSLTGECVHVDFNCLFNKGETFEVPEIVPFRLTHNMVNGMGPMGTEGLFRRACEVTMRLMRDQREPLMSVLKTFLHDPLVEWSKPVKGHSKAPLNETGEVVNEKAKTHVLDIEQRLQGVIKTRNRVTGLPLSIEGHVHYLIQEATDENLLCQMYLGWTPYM

[4] = target: T1, Serine/threonine-protein kinase ATR; test: Inhibition of ATR (unknown origin) using peptide as substrate preincubated for 10 mins followed by substrate addition by microplate reader analysis
Target sequence in this assay (Q13535 whole entry): as the sequence (Q13535 whole entry, looked up) above

[5] = Tmax in Sprague-Dawley rat at 5 mg/kg, po and measured upto 24 hrs by LC-MS analysis; format: ADME, organism-based; settings: in vivo
[6] = test system: LoVo; test: Antiproliferative activity against ATM-deficient human LoVo cells assessed as reduction in cell proliferation incubated for 3 days by MTT assay; format: functional, cell-based; settings: 72 h
[7] = Clearance in Sprague-Dawley rat at 1 mg/kg, iv and measured upto 24 hrs by LC-MS analysis; format: ADME, organism-based; settings: in vivo
[8] = MRT(t) in Sprague-Dawley rat at 1 mg/kg, iv and measured upto 24 hrs by LC-MS analysis; format: ADME, organism-based; settings: in vivo
[9] = in vitro; settings: human, liver microsomes
[10] = AUC (0 to infinity) in Sprague-Dawley rat at 5 mg/kg, po and measured upto 24 hrs by LC-MS analysis; format: ADME, organism-based; parameters: time < 24 hrs, dose 5 mg/kg, route po; settings: in vivo
[11] = in vitro; settings: human, liver microsomes; remark: listed apart in the source
[12] = test system: HT-29; test: Antiproliferative activity against ATM-proficient human HT-29 cells assessed as reduction in cell proliferation incubated for 3 days by MTT assay; format: functional, cell-based; settings: HT-29, 72 h
[13] = AUCt in Sprague-Dawley rat at 1 mg/kg, iv and measured upto 24 hrs by LC-MS analysis; format: ADME, organism-based; parameters: dose 1 mg/kg, time < 24 hrs, route iv; settings: in vivo
[14] = Half life in Sprague-Dawley rat at 5 mg/kg, po and measured upto 24 hrs by LC-MS analysis; format: ADME, organism-based; settings: in vivo
[15] = in vitro; settings: rat, liver microsomes
[16] = in vitro; settings: rat, liver microsomes; remark: listed apart in the source
[17] = in vitro; settings: rat, liver microsomes; remark: listed apart in the source
[18] = MRT (0 to infinity) in Sprague-Dawley rat at 1 mg/kg, iv and measured upto 24 hrs by LC-MS analysis; format: ADME, organism-based; settings: in vivo
[19] = MRT (0 to infinity) in Sprague-Dawley rat at 5 mg/kg, po and measured upto 24 hrs by LC-MS analysis; format: ADME, organism-based; settings: in vivo
[20] = AUCt in Sprague-Dawley rat at 5 mg/kg, po and measured upto 24 hrs by LC-MS analysis; format: ADME, organism-based; parameters: time < 24 hrs, dose 5 mg/kg, route po; settings: in vivo
[21] = Oral bioavailability in Sprague-Dawley rat at 5 mg/kg and measured upto 24 hrs by LC-MS analysis; format: ADME, organism-based; settings: in vivo
[22] = Half life in Sprague-Dawley rat at 1 mg/kg, iv and measured upto 24 hrs by LC-MS analysis; format: ADME, organism-based; settings: in vivo
[23] = Cmax in Sprague-Dawley rat at 5 mg/kg, po and measured upto 24 hrs by LC-MS analysis; format: ADME, organism-based; parameters: time < 24 hrs, dose 5 mg/kg, route po; settings: in vivo
[24] = MRT(t) in Sprague-Dawley rat at 5 mg/kg, po and measured upto 24 hrs by LC-MS analysis; format: ADME, organism-based; settings: in vivo
[25] = AUC(0 to infinity) in Sprague-Dawley rat at 1 mg/kg, iv and measured upto 24 hrs by LC-MS analysis; format: ADME, organism-based; parameters: time < 24 hrs, dose 1 mg/kg, route iv; settings: in vivo
[26] = Volume of distribution at steady state in Sprague-Dawley rat at 1 mg/kg, iv and measured upto 24 hrs by LC-MS analysis; format: ADME, organism-based; settings: in vivo, read-out: Vdss
[27] = in vitro; settings: human, liver microsomes; remark: listed apart in the source
[28] = target: Serine/threonine-protein kinase mTOR (Homo sapiens, UniProt P42345); test: Inhibition of mTOR (unknown origin) using peptide as substrate preincubated for 10 mins followed by substrate addition by microplate reader analysis
[29] = test system: HCT-116; test: Antiproliferative activity against ATM-proficient human HCT-116 cells assessed as reduction in cell viability incubated for 3 days by MTT assay; format: functional, cell-based; settings: HCT-116, 72 h
[30] = test system: A549; test: Antiproliferative activity against ATM-proficient human A549 cells assessed as reduction in cell viability incubated for 3 days by MTT assay; format: functional, cell-based; settings: A549, 72 h

Row | SMILES | inhibition [3] | IC50 [4] | Tmax [5] | IC50 [6] | clearance [7] | MRT last at 24 h [8] | microsomal CLint at 1 h, 1 µM [9] | AUC(0-inf) [10] | half-life at 1 h, 1 µM [11] | IC50 [12] | AUC(0-t) at 24 h [13] | half-life [14] | microsomal CLint at 1 h, 1 µM [15] | half-life at 1 h, 1 µM [16] | CLint scaled at 1 h, 1 µM [17] | MRT inf [18] | MRT inf [19] | AUC(0-t) at 24 h [20] | bioavailability [21] | half-life [22] | also measured
1 | O=C(c1cc(Cc2n[nH]c(=O)c3ccccc23)ccc1F)N1CCN(C(=O)C2CC2)CC1 [OLAPARIB] | – | – | – | – | – | – | – | – | – | – | – | – | – | – | – | – | – | – | – | – | IC50 [1]: 18.6 µM; IC50 [2]: 73.3 µM
2 | C[C@@H]1COCCN1c1nc(-c2cccc3[nH]ccc23)nc2c1CCN(S(C)(=O)=O)C2(C)C | 88.7% | 18 nM | – | – | – | – | – | – | – | – | – | – | – | – | – | – | – | – | – | – | IC50 [28]: 157 nM
3 | COc1cccc(C(=O)N2Cc3c(N4CCOC[C@H]4C)nc(-c4cccc5[nH]ccc45)nc3C2(C)C)c1 | – | 4 nM | 40 min | 151 nM | 20.1 mL/min/kg | 1.02 h | 51.6 µL/min/mg | 342 ng·h/mL | 26.8 min | 357 nM | 835 ng·h/mL | 112 min | 20.1 µL/min/mg | 69.9 min | 36.2 mL/min/kg | 1.08 h | 3.08 h | 323 ng·h/mL | 8.1% | 76.8 min | Cmax [23]: 86.2 ng/mL; MRT last at 24 h [24]: 2.7 h; AUC(0-inf) [25]: 840 ng·h/mL; Vd [26]: 1.3 L/kg; CLint scaled at 1 h, 1 µM [27]: 48.8 mL/min/kg

More lines, main results first:

Row | inhibition [3] | IC50 [4] | Tmax [5] | IC50 [6] | clearance [7] | MRT last at 24 h [8] | microsomal CLint at 1 h, 1 µM [9] | AUC(0-inf) [10] | half-life at 1 h, 1 µM [11] | IC50 [12] | AUC(0-t) at 24 h [13] | half-life [14] | microsomal CLint at 1 h, 1 µM [15] | half-life at 1 h, 1 µM [16] | CLint scaled at 1 h, 1 µM [17] | MRT inf [18] | MRT inf [19] | AUC(0-t) at 24 h [20] | bioavailability [21] | half-life [22] | SMILES | also measured
4 | 14.6% | – | – | – | – | – | – | – | – | – | – | – | – | – | – | – | – | – | – | – | C[C@@H]1COCCN1c1nc(-c2cccc3[nH]ccc23)nc2c1CCN(Cc1ccccc1)C2(C)C | –
5 | – | 3 nM | 60 min | 128 nM | 11.3 mL/min/kg | 2.99 h | 147 µL/min/mg | 729 ng·h/mL | 9.46 min | 387 nM | 1440 ng·h/mL | 600 min | 76.6 µL/min/mg | 18.1 min | 138 mL/min/kg | 3.3 h | 11.3 h | 452 ng·h/mL | 6.3% | 181 min | COc1ccc(C(=O)N2Cc3c(N4CCOC[C@H]4C)nc(-c4cccc5[nH]ccc45)nc3C2(C)C)cc1 | Cmax [23]: 83.1 ng/mL; MRT last at 24 h [24]: 7.08 h; AUC(0-inf) [25]: 1470 ng·h/mL; Vd [26]: 2.23 L/kg; CLint scaled at 1 h, 1 µM [27]: 139 mL/min/kg
6 | – | – | – | – | – | – | – | – | – | > 30000 nM | – | – | – | – | – | – | – | – | – | – | CC(C)n1c(=O)n(C)c2cnc3cc(F)c(-c4ccc(OCCCN5CCCCC5)nc4)cc3c21 [AZD-1390] | IC50 [29]: 10.5 µM; IC50 [30]: 43 µM
